Laboratory results from patent US9770421B2, “Uses for idebenone and related benzoquinones in metabolic disorders and other PPAR α/γ related diseases and conditions” (INDANIO BIOSCIENCE INC., priority 2013, dated 2017).
Entries after “also recorded” stand apart in the source; their conditions may differ.

Tests used:
hPPARδ/β = target: T1, hPPARδ/β (Homo sapiens, UniProt Q03181); experiment: HEK293 cell culture luciferase reporter assay, hPPARδ/β; settings: HEK293
T1 sequence (Q03181 143-441): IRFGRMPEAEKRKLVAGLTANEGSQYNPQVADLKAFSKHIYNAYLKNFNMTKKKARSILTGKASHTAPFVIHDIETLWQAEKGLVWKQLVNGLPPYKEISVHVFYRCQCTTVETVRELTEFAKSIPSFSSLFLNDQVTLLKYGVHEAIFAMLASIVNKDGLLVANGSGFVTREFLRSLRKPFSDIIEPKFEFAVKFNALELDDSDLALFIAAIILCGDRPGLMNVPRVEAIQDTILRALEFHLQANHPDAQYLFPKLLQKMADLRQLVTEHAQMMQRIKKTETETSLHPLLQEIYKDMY

hPPARγ [1] = target: T2, hPPARγ (Homo sapiens, UniProt P37231); experiment: PPARγ ligand trap (LT) zebrafish GFP reporter screen/assay; format: in vivo; set-up: pLT PPARα (aa 178-468) and pLT PPAR γ (aa 188-477) lines; expressed in transfected cells; host or cells: transgenic zebrafish embryos (heat-induced ligand-trap line); settings: for GFP reporter activation in LT-PPARγ embryos: transgenic embryos, 48 hpf images
T2 sequence (P37231 188-477 isoform P37231-2): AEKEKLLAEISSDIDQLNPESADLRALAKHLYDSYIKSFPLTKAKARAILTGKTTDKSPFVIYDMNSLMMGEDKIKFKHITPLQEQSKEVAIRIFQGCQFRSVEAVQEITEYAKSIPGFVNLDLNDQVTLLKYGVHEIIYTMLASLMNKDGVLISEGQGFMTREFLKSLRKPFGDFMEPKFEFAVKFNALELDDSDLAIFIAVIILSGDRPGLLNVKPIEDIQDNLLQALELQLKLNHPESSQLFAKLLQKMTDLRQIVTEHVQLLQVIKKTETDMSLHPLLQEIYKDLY
Experimental: Digested DNA was adjusted with 0.1% phenol red. 4.6 nl of DNA solution was injected into the blastomeres of early one-cell stage embryos.
F0 fish were crossed with WT fish to identify germ-line transformed animals, as determined by agonist treatments and GFP expression. F1 progeny showing strong and consistent GFP responses were selected for F2 homozygote production. To avoid reporter GFP silencing of stable transgenic LT lines, homozygous fish showing strong and consistent GFP responses were selected for continued propagation of next generations.
PPARγ ligand trap zebrafish screens were performed under optimized conditions in 96-well format using the ImageXpress Velos Laser Scanning Cytometer. 1 or 2 dpf embryos were heat induced (28→37° C.) for 30 minutes, de-chorionated and then arrayed in 96-well plates (5 per well). Embryo water (0.075 g/L NaHCO3, 0.018 g/L Sea salt, 0.0084 g/L CaSO42H2O) was removed and 200 μl of fresh embryo water/well including dissolved small molecules or solvent was added.
Also included was the CoQ10 analog idebenone.

PPARα LBD = target: T3, PPARα LBD (Homo sapiens, UniProt Q07869); experiment: In vitro co-purification with His-tagged PPARα LBD, MS; format: binding; settings: incubated with 10 μM idebenone
T3 construct: His-tagged PPARα, δ and γ LBDs were expressed in bacteria, Ni-NTA purified; His; made in house; host or cells: bacteria (E. coli)
T3 sequence (Q07869 239-466 limits assumed): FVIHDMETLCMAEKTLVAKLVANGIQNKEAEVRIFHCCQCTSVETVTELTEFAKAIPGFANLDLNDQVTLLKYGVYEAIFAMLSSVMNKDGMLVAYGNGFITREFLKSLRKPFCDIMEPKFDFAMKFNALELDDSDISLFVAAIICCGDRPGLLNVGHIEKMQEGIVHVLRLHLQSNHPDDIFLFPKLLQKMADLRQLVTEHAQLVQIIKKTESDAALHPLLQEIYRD
Experimental: To see if idebenone can bind to directly to other PPAR LBDs, His-tagged PPARα, δ and γ LBDs were expressed in bacteria, Ni-NTA purified and incubated with 10 μM idebenone. After several washes in a 10 kDa cut off Amicon centrifuge filter (Millipore), lipids were extracted and analyzed by MS.

hPPARγ [2] = target: T2, hPPARγ; experiment: HEK293 cell culture luciferase reporter assay, hPPARγ
[3] = target: T4, human PPARγ LBD (residues 206-477) (Homo sapiens, UniProt P37231); experiment: Stargazer thermostabilization assay; format: binding; settings: 0.2 mg/ml PPARγ LBD, heated to 80° C.
T4 construct: human PPARγ LBD (residues 206-477), expressed in pRSET; His tag (implied by Ni-NTA purification and the pRSET vector); made in house; host or cells: E. coli BL21 codon plus (pRSET)
T4 sequence (P37231 206-477 isoform P37231-2): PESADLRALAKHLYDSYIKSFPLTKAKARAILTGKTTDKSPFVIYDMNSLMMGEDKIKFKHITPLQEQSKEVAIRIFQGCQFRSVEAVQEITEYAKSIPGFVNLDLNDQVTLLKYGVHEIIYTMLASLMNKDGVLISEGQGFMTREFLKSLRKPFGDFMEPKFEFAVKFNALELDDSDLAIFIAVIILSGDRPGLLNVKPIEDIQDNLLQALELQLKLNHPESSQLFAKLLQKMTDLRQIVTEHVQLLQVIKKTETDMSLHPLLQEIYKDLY

Response of PPARδ/β in cultured cells (hPPARδ/β): no response
Hit activating the PPARγ ligand trap reporter fish line (hPPARγ [1]; Enzo FDA approved drug library, screened at 1, 3 and 10 μM): hits
Concentration yielding maximal activation in fish reporter system (hPPARγ [1]; in vivo): ≥ 4 µM
EC50 (hPPARγ [1]; zebrafish ligand trap, read-out: EC50 in fish): 2 µM
Binding to PPARα LBD (co-purification, MS) (PPARα LBD): strong binding
EC50 (hPPARγ [2]): 2.5 µM
Shift of thermal denaturation transition temperature [3]: 5.5 °C
SMILES: COC1=C(OC)C(=O)C(CCCCCCCCCCO)=C(C)C1=O [Idebenone, 2-(10-hydroxydecyl)-5,6-dimethoxy-3-methyl-2,5-cyclohexadiene-1,4-dione]
GFP reporter activation in LT-PPARγ embryos (hPPARγ [1]): more limited GFP expression in cells of the blood, epidermis and CNS
GFP reporter activation in LT-PPARγ embryos (hPPARγ [1]; listed as idebenone): weaker and less widespread than responses to rosiglitazone or pioglitazone; also recorded: dual agonists for PPARα and PPARγ
Maximum activation level versus full agonist, PPARγ (hPPARγ [2]; HEK293, full agonist rosiglitazone): significantly lower than those obtained using the full agonists
